Consider three compounds from ChEMBL document CHEMBL1201862, “PubChem BioAssay data set” (2004).

Test [1] addresses Heat shock protein HSP 90-alpha (Homo sapiens, UniProt P07900). In kind it is functional, organism-based.
Test [2] deals with T1, Sphingosine 1-phosphate receptor 4 (Homo sapiens, UniProt O95977).
T1 sequence (O95977 whole entry): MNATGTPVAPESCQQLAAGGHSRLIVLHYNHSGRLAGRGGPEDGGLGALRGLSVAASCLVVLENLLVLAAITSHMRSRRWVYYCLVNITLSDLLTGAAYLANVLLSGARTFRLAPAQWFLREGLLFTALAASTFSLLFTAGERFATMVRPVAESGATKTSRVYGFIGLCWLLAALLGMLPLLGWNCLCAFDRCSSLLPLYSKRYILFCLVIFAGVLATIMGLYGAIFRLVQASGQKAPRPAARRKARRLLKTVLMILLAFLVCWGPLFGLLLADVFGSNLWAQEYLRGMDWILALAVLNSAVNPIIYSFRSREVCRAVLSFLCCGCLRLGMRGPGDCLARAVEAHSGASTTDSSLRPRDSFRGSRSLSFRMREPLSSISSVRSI
The experiment in a line: Fluorescence dose response cell-based high throughput screening assay for antagonists of the Sphingosine 1-Phosphate Receptor 4 (S1P4). [Related pubchem assays: 1524 (Confirmation in triplicates.), 1510 (Primary screen.)]. Format: functional.

Test [3] deals with Bifunctional protein GlmU (Mycobacterium tuberculosis, UniProt P9WMN3). Description: Inhibitors of Mycobacterial Glucosamine-1-phosphate acetyl transferase (GlmU). Secondary screen. Details: species or system Mycobacterium tuberculosis H37Rv.
Bifunctional protein GlmU, sequence (P9WMN3 whole entry): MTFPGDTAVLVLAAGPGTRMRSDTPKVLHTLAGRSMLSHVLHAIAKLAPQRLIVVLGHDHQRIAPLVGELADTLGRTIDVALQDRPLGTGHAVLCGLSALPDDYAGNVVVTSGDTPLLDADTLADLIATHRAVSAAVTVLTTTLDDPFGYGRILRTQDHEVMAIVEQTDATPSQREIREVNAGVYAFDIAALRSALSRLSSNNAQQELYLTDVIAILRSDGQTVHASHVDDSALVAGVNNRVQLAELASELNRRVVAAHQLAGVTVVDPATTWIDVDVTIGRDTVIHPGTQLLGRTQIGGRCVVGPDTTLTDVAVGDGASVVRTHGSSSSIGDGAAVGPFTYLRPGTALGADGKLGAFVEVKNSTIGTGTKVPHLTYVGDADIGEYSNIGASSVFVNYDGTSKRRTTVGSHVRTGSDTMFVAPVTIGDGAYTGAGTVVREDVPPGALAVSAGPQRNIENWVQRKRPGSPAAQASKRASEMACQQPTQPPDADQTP
In test [4] the target is T1, Sphingosine 1-phosphate receptor 4. Description: Late stage fluorescence dose response cell-based screening assay for antagonists of the Sphingosine 1-Phosphate Receptor 4 (S1P4). [Related pubchem assays: 1524 (Confirmation screen (S1P4 antagonists).), 1510 (Primary screen (S1P4 antagonists).), 1853 (Summary AID (S1P4 antagonists).), 1692 (Dose response screen (S1P4 antagonists).)]. Format: functional.

The test system of another test is H4. Description: Luminescence Cell-Based Dose Response HTS to Identify Activators of 5'UTR Stem-Loop Driven Prion Protein mRNA Translation in H4 Neuroglioblastoma Cells. [Related pubchem assays: 1829 (Project Summary), 1814 (Primary HTS)]. The conditions noted are these: Homo sapiens. Format: functional.
Test [5] is described as follows: THP-1 cell cytotoxicity, dose response, cytotoxicity control for non-replicating M. tuberculosis project (AID 489025). In kind it is functional.
Another test has as its target Beta Lactamase (Pseudomonas aeruginosa, UniProt Q932Y6). Description: beta-lactamase reporter inhibitor potency, dose response, artefact control for TLR9-MyD88 binding inhibitor project, BLA reporter cells, FRET fluorescence (AID 588341).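 Note: cell based assay in CHO-K1 cells stably expressing beta-lactamase.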 Format: cell-based.
The nature of test [6]: HepG2 cell cytotoxicity, dose response, cytotoxicity control for non-replicating M. tuberculosis project (AID 489018). In kind it is functional. The conditions noted are these: Mycobacterium tuberculosis.
Test [7] is described as follows: Luminescence Cell-Based Dose Response HTS to Identify Activators of Luciferase Translation or Activity in H4 […] Cells. [Related pubchem assays: 1829 (Project Summary), 1814 (Primary HTS)]. In kind it is functional.
A further test can be described thus: cells. Format: functional.
Test [8] concerns the target T2, Histone-lysine N-methyltransferase NSD2 (Homo sapiens, UniProt O96028).
T2 sequence (O96028 whole entry): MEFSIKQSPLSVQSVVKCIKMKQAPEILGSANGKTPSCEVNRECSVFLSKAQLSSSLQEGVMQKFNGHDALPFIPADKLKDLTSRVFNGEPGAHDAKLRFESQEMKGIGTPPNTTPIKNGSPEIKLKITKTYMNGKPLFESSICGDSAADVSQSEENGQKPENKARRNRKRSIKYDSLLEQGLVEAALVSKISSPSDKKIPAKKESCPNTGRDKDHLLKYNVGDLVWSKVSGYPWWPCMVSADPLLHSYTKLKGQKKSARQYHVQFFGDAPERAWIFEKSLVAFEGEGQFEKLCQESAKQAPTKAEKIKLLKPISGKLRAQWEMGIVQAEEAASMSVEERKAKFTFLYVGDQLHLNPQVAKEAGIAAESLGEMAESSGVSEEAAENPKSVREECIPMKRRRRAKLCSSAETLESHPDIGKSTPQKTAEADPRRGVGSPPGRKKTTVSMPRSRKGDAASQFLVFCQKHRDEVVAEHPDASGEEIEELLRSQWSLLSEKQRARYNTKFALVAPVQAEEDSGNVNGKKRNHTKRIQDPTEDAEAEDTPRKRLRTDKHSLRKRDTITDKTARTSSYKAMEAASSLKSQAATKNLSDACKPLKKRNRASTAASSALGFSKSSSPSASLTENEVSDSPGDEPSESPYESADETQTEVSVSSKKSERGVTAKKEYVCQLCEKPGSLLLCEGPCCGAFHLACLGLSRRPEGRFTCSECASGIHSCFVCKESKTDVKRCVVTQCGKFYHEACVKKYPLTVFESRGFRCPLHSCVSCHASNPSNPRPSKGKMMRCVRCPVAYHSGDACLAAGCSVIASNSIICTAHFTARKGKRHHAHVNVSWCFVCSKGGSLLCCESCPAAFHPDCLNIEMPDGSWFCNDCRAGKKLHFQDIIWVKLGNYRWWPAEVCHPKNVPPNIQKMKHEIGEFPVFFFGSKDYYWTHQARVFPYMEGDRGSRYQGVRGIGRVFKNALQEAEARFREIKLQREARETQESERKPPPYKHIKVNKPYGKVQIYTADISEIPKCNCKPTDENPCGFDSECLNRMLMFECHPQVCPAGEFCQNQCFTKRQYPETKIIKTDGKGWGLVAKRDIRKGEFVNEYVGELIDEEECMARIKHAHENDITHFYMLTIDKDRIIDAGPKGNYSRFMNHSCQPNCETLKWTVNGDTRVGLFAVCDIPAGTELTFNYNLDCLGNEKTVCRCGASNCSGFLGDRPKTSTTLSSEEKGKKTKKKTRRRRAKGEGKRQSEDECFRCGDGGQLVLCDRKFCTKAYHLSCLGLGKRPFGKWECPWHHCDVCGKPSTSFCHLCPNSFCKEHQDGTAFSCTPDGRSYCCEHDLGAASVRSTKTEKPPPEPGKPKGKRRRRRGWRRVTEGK
Format: biochemical.

A further test concerns the target T3, Caspase-3 (Homo sapiens, UniProt P42574).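 Note: Dose-response selectivity test against caspase-3 for candidate inhibitors of sentrin-specific proteases (SENPs).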
T3 sequence (P42574 whole entry): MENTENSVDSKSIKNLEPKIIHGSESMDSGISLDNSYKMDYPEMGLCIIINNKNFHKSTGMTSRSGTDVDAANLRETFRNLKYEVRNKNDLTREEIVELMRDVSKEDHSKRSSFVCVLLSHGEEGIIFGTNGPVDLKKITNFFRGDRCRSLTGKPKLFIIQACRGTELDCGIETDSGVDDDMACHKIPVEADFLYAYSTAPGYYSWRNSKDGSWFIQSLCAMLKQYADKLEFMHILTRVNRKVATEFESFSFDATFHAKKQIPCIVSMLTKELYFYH
In kind it is functional.

The target in test [9] is T4, SUMO-activating enzyme (Homo sapiens, UniProt Q9UBT2). Description: inhibitors of in vitro SUMOylation cascade, primary screen, biochemical, HTRF, uHTS (AID 2006). In kind it is protein-complex assay. On the technique in general: TR-FRET usually uses a lanthanide donor and a delayed reading to cut background.
T4 sequence (Q9UBE0 whole entry): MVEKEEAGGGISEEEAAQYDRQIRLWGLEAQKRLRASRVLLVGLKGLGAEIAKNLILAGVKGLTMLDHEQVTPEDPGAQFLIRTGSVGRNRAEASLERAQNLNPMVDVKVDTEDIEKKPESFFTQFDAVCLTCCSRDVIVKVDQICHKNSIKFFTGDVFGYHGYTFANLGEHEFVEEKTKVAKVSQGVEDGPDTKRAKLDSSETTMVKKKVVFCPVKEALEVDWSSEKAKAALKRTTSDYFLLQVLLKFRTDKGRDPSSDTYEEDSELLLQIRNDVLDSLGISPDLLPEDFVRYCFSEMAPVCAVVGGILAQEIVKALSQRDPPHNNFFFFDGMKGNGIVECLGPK
T4 sequence (Q9UBT2 whole entry): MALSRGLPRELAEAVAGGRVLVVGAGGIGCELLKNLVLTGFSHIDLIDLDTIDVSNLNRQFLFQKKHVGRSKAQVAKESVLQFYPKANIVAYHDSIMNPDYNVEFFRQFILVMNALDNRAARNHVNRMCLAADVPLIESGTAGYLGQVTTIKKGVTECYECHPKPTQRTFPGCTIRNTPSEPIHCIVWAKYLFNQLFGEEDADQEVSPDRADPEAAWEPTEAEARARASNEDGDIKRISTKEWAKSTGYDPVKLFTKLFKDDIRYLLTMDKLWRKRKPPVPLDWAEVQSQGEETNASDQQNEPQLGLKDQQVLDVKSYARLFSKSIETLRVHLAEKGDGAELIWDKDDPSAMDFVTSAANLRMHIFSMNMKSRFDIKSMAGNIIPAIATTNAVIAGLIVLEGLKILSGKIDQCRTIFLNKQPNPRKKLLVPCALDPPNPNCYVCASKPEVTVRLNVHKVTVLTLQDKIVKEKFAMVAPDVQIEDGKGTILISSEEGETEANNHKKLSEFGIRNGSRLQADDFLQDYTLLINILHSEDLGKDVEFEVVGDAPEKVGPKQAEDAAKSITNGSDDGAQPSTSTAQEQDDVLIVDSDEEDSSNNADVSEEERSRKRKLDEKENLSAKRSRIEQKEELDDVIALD
Test [10] deals with T4, SUMO-activating enzyme. Description: SUMOylation inhibitor hit validation, confirmation, SUMOylation inhibitor project, biochemical, AlphaScreen (AID 2018). In kind it is functional. Background: Bead proximity is the source of the signal in Alpha formats.

The source made the active and inactive calls. A value given as a limit tells only on which side of the number the result lay.

Beta Lactamase, sequence (Q932Y6 whole entry): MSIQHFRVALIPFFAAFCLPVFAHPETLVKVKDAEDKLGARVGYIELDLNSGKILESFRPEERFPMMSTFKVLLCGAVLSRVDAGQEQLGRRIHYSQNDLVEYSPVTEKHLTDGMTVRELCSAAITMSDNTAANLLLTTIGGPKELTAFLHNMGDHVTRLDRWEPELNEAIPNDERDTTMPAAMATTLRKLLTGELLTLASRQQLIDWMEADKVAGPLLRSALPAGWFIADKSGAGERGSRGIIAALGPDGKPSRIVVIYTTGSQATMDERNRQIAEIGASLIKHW

For `O=C(Nc1ccccc1)c1nnsc1[S+]([O-])c1ccc(Cl)cc1` (stereo not given), the AC50 (commonly the concentration giving half of the maximal activity seen) in test [1] was < 0.195 µM (active). For the same compound, the IC50 (in general, the concentration needed to halve the response being measured) in [2] is 1.15 µM (active); in [3], 197 µM (active); in [4], 12 µM (not active); at Beta Lactamase, 11.9 µM (inactive); in “cells”, 13.1 µM (active). Besides, the EC50 – broadly, the midpoint of the concentration-response curve – in the test on H4 was 24 µM (active); in test [7] it was 4.31 µM (active). Further, the CC50 (usually the concentration that lowers cell viability or growth by half) in test [5] was 23.4 µM (active); in test [6] it was 19.1 µM (active).
As to `CC1OC(Nc2cccc3ccccc23)C(O)C(O)C1O` (stereo not given), the AC50 in [8] was 9.24 µM (active). For the same compound, the IC50 at Caspase-3 is 9.4 µM (active).
For the compound `O=C1C=C(Nc2ccccc2)c2ccccc2C1=O`, the IC50 at Caspase-3 is 18.6 µM (active); on SUMO-activating enzyme [9], 20.7 µM (active); at SUMO-activating enzyme [10], 1.47 µM (active).
